Assay results taken from publication PMC4992173, “Divergent synthesis and identification of the cellular targets of deoxyelephantopins” (Nature Communications, 2016).

Target: T1, Heme oxygenase 2 (HMOX2) (Homo sapiens, UniProt P30519)
T1 construct: endogenous in cells; host or cells: MCF7
Assay: In situ competitive profiling in live MCF7 cells (LFQ): HMOX2
Format: cell-based
Settings: protein HMOX2, 4 h, then 10 µM 24c, n=4
From the text: In our efforts to determine the direct molecular targets of deoxyelephantopin we first performed a gel-based competitive in situ proteomic profiling assay[41] […] While the greater conformational flexibility of probe 24c could potentially lead to more promiscuous target engagement relatively to deoxyelephantopin, it was favoured based on the fact that an alkyne moiety appended to the rigid scaffold of deoxyelephantopin may hinder some of its interactions. MCF7 cells were pretreated with various concentrations of deoxyelephantopin for 4 h, harvested, lysed and the lysates were treated with the fluorogenic probe 24c-Cy3 (10 μM; Supplementary Fig. 10). […] Furthermore, cells were pretreated with 20 μM concentration of deoxyelephantopin or 24c and the proteomic profiles were compared (Fig. 6b, Supplementary Fig. 11). Multiple bands were detected that were equally competed by both DEP and 24c, thus again confirming that 24c can be used as an acceptable clickable analogue of deoxyelephantopin in pulldown assays. Having established the optimal labelling conditions by SDS–PAGE, we next carried out a mass spectrometry-based competitive profiling assay[42] coupled with the method of stable isotope labelling of amino acids in culture (SILAC)[43]. […]
Figure 6 Proteome-wide identification of deoxyelephantopin targets. […] Quantification was performed using label-free quantification (LFQ) method (n=4). […]

T1 sequence (P30519 whole entry): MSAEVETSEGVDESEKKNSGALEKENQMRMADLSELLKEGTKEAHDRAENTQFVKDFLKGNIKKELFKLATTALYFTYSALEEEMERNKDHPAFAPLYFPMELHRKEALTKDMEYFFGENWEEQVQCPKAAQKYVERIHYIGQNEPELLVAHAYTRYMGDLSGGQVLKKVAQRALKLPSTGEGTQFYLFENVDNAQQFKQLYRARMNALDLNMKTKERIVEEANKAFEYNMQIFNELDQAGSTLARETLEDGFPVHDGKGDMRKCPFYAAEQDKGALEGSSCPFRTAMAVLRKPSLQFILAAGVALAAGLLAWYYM

With `C=C(C)C(=O)O[C@H]1CC2=C[C@@H](C/C(C)=C/[C@H]3OC(=O)C(=C)[C@H]13)OC2=O` [deoxyelephantopin] the “LFQ ratio 20 µM Deoxyelephantopin/DMSO with 24c” value was 0.14.
